The record followed here is US12577217B2, “15-PGDH inhibitor” (KYORIN Pharmaceutical Co., Ltd., priority 2019, dated 2026).

Structures can show the parent of a compound that is named as a salt.

For the experiment, the target named is T1, recombinant human 15-PGDH (Homo sapiens, UniProt P15428).
T1 construct: purchased R&D Systems
T1 sequence (P15428 1-266): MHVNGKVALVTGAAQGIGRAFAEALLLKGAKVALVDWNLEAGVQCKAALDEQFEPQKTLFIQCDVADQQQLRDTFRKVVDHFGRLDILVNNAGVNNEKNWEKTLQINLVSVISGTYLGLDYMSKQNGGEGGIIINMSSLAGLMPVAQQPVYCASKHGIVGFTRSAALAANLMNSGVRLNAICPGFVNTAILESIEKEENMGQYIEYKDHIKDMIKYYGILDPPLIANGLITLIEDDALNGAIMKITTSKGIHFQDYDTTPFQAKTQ
The experiment in a line: 15-PGDH enzyme inhibition test. The following applies: 4 nM recombinant human 15-PGDH, 30 μM PGE2, 1 mM NAD+, 60 minutes after starting the reaction; read-out: IC50 Value. The experiment is classed as biochemical. The procedure, abridged:
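Fluorescence (excitation 340 nm, emission 440 nm) measured 60 min after adding 1 mM NAD+ and 30 μM PGE2 to 4 nM recombinant human 15-PGDH, which had stood 12 min at room temperature with compound in pH 8.0 Tris-HCl buffer. Concentration-response curves yield IC50, binned into potency categories.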
As to `O=C(c1cnc2c(c1)OCCN2c1ccc2c(c1)CN(CO)C2=O)N1CCC(F)(F)CC1` [Example 25-1, 5-(7-(4,4-Difluoropiperidine-1-carbonyl)-2,3-dihydro-4H-pyrido[3,2-b]oxazin-4-yl)-2-(hydroxymethyl)isoindolin-1-one], the IC50 was below 10 nM.

Turning to `CN1Cc2cc(N3CCOc4cc(C(=O)N5CCC(F)(F)CC5)ccc43)ncc2C1=O` [Example 1-151], the IC50 was below 10 nM.

With `COCCNC(=O)c1ccc(N2CCCc3cc(C(=O)N4CCCCC4)cnc32)cc1F` [Example 1-60], the IC50 is below 10 nM.

`Cn1nc2c(Cl)c(N3CCOc4cc(C(=O)N5CCCCC5)cnc43)ccn2c1=O` [Example 1-29]: the IC50 is below 10 nM.

For the compound `Cn1nc2cc(N3CCOc4cc(C(=O)N5CCCC6(CCO6)C5)cnc43)ccn2c1=O` (stereo not shown) [Example 8-51], the IC50 is 10 to 100 nM.

Take `Cn1nc2cc(N3CCCOc4cc(C(=O)N5CCCCC5)cnc43)ccn2c1=O` [Example 1-99]: the IC50 is below 10 nM.

Consider `CCn1nc2cc(N3CCOc4cc(C(=O)N5CC=CCC5)cnc43)ccn2c1=O` [Example 8-217], for which the IC50 was below 10 nM.

With `C[C@H]1COc2cc(C(=O)N3CCCCC3)ccc2N(c2ccc(C(=O)O)cc2)C1` [Example 2-10], the IC50 is below 10 nM.

As for `O=C(O)c1cccc(N2CCOc3cc(C(=O)N4CCCCC4)cnc32)c1` [Example 4-19], the IC50 lay in the range of 10 to 100 nM.

In the case of `CCCCn1nc2cc(N3CCCc4cc(C(=O)N5CCCCC5)cnc43)ccn2c1=O` [Example 1-203], the IC50 is below 10 nM.

On to `CCN1Cc2cc(N3CCCc4cc(C(=O)N5CCCCC5)cnc43)ccc2C1=O` [Example 1-169], for which the IC50 is below 10 nM.

In the case of `Cn1nc2cc(N3CCOc4cc(C(=O)N5CCC[C@@H](O)C5)cnc43)ccn2c1=O` [Example 8-33], the IC50 was below 10 nM.

With `O=C(c1cnc2c(c1)CCCN2c1ccc2c(c1)CN(CC1COC1)C2=O)N1CCCCC1` [Example 1-65], the IC50 was below 10 nM.

Turning to `Cn1nc2cc(N3CCOc4cc(C(=O)N5CCCC6(CC6)C5)cnc43)ccn2c1=O` [Example 8-42], the IC50 is below 10 nM.

As to `O=C(c1cnc2c(c1)OCCN2c1ccc(C(F)(F)F)cc1)N1CCCCC1` [Example 1-242], the IC50 fell in the range of 10 to 100 nM.

Regarding `CN1Cc2cc(N3CCOc4cc([S+]([O-])C5CCCCC5)cnc43)ccc2C1=O` (stereo not shown) [Example 7-9], the IC50 is below 10 nM.

In the case of `O=C(c1cnc2c(c1)OCCN2c1ccn2c(=O)n(Cc3ccc(F)c(F)c3)nc2c1)N1CCC(F)(F)CC1` [Example 27-6], the IC50 was below 10 nM.

Turning to `Cn1nc2cc(N3CCN(c4ccccc4)c4cc(C(=O)N5CCC(F)(F)CC5)cnc43)ccn2c1=O` [Example 30-1, 7-(7-(4,4-Difluoropiperidine-1-carbonyl)-1-phenyl-2,3-dihydropyrido[2,3-b]pyrazin-4(1H)-yl)-2-methyl-[1,2,4]triazolo[4,3-a]pyridin-3 (2H)-one], the IC50 lay in the range of 10 to 100 nM.

With `Cn1nc2cc(N3CCOc4cc(C(=O)N5CCCC6CC65)cnc43)ccn2c1=O` (stereo not shown) [Example 8-54], the IC50 was below 10 nM.

On to `Cn1nc2cc(N3CCOCc4cc(C(=O)N5CCCCC5)cnc43)ccn2c1=O` [Example 1-108], for which the IC50 lay in the range of 10 to 100 nM.

On to `O=C(c1cnc2c(c1)OCCN2c1ccncc1)N1CCCCC1` [Example 1-233], for which the IC50 was 10 to 100 nM.

On to `C[C@@H]1COc2cc(C(=O)N3CCCCC3)ccc2N(c2ccc(C(=O)O)cc2)C1` [Example 2-11], for which the IC50 was below 10 nM.

Consider `O=C(O)c1ccc(N2CCSc3cc(C(=O)N4CCCCC4)ccc32)cc1` [Example 2-15], for which the IC50 is below 10 nM.

In the case of `O=C(c1cnc2c(c1)OCCN2c1ccccn1)N1CCCCC1` [Example 1-235], the IC50 was above 100 nM.

Turning to `Cn1nc2cc(N3CCOc4cc(C(=O)N5CCC[C@@H]5C(=O)OC(C)(C)C)cnc43)ccn2c1=O` [Example 8-228], the IC50 is above 100 nM.

As for `CCOCn1nc2cc(N3CCCc4cc(C(=O)N5CCC[C@@H](CF)C5)cnc43)ccn2c1=O` [Example 1-122], the IC50 is below 10 nM.

In the case of `Cn1nc2cc(N3CCOc4cc(C(=O)N5CCC(F)(F)CC5)ccc43)ccn2c1=O` [Example 1-147], the IC50 was below 10 nM.

In the case of `O=C(O)c1ccc(N2CCCSc3cc(C(=O)N4CCCCC4)ccc32)cc1` [Example 2-18], the IC50 is below 10 nM.

For the compound `COC(=O)c1ccccc1N1CCOc2cc(C(=O)N3CCCCC3)ccc21` [Example 1-137], the IC50 is above 100 nM.

Take `CCN1Cc2cc(N3CCCc4cc(C(=O)N5CCC(F)(F)C(C)C5)cnc43)ccc2C1=O` (stereo not shown) [Example 8-82]: the IC50 is below 10 nM.

`COCCN1Cc2cc(N3CCOc4cc(C(=O)N5CCC(F)(F)CC5)cnc43)ccc2C1=O` [Example 1-49]: the IC50 is below 10 nM.

For the compound `COCCn1nc2cc(N3CCOc4cc(C(=O)N5CCC(F)(F)CC5)cnc43)ccn2c1=O` [Example 1-47], the IC50 was below 10 nM.

Consider `Cn1nc2cc(N3CCOc4cc(C(=O)N5CCCCC5)sc43)ccn2c1=O` [Example 8-222], for which the IC50 is below 10 nM.

For the compound `Cn1ccc2cc(N3CCOc4cc(C(=O)N5CCCCC5)cnc43)ccc2c1=O` [Example 1-217], the IC50 is below 10 nM.

For the compound `Cn1nc2cc(N3CCOc4cc(C(=O)N5CCC[C@@H](F)C5)cnc43)ccn2c1=O` [Example 8-23], the IC50 is below 10 nM.

Regarding `NC(=O)c1ccc(N2CCOc3cc(C(=O)N4CCCCC4)cnc32)cn1` [Example 6-21], the IC50 was below 10 nM.

On to `O=C(c1cnc2c(c1)CCCN2c1ccc2c(=O)[nH]ccc2c1)N1CCCCC1` [Example 1-173], for which the IC50 is below 10 nM.

On to `Cn1nc2cc(N3CCOc4cc(C(=O)N5CCC[C@@H](C(F)(F)F)C5)cnc43)ccn2c1=O` [Example 8-115], for which the IC50 is below 10 nM.

For `Cn1nc2cc(N3CCOc4cc(S(=O)(=O)C5CCCCC5)cnc43)ccn2c1=O` [Example 7-6], the IC50 was above 100 nM.

Regarding `Cn1nc2cc(N3CCOc4cc(C(=O)C5CCC(F)(F)CC5)cnc43)ccn2c1=O` [Example 1-132], the IC50 was below 10 nM.

As to `O=C(O)c1ccc(N2CCOc3cc(C(=O)N4CCCCC4)cnc32)cc1` [Example 4-2], the IC50 was below 10 nM.

With `COC(=O)c1cccc(N2CCc3cc(C(=O)N4CCCCC4)ccc32)c1` [Example 1-139], the IC50 was below 10 nM.

For `COC(=O)c1ccc(N2CCOc3cc(C(=O)N4CCCCC4)cnc32)cc1` [Example 1-261], the IC50 was below 10 nM.

`Cn1ccc2cc(N3CCOc4cc(C(=O)N5CCC(F)(F)CC5)cnc43)ccc2c1=O` [Example 1-267]: the IC50 is below 10 nM.

Consider `CO[C@H]1CCCN(C(=O)c2cnc3c(c2)OCCN3c2ccn3c(=O)n(C)nc3c2)C1` [Example 18-2], for which the IC50 was below 10 nM.

In the case of `Cn1nc2cc(N3CCOc4cc(C(=O)N5C[C@@H]6CC[C@@H](C6)C5)cnc43)ccn2c1=O` [Example 8-39], the 50% inhibitory concentration (IC50) was below 10 nM.

In the case of `O=C(c1cnc2c(c1)CCCN2c1ccc(-c2nn[nH]n2)cc1)N1CCCCC1` [Example 14-7], the IC50 was below 10 nM.

As for `Cn1nc2cc(N3CCCc4cc(C(=O)N5CCC[C@@H](F)C5)cnc43)ccn2c1=O` [Example 8-137], the half-inhibitory concentration (IC50) was below 10 nM.

With `CNC1CCCN(C(=O)c2cnc3c(c2)OCCN3c2ccn3c(=O)n(C)nc3c2)C1` (stereo not shown) [Example 32-1, 2-Methyl-7-(7-(3-(methylamino)piperidine-1-carbonyl)-2,3-dihydro-4H-pyrido[3,2-b][1,4]oxazin-4-yl)-[1,2,4]triazolo[4,3-a]pyridin-3(2H)-one Trifluoroacetate], the IC50 was above 100 nM.
